# Values quoted from earlier work, collected in patent US20220117919A1, “ENHANCED BIOAVAILABILITY OF N-(2,6-BIS(1-METHYLETHYL)PHENYL)-N'-((1-(4-(DIMETHYLAMINO)-PHENYL)CYCLOPENTYL)METHYL)UREA HYDROCHLORIDE” (The Regents of the University of Michigan, priority 2015, published 2022).
# Test system: adrenocortical carcinoma (ACC)
# Settings: cited from earlier work
structure (smiles),measurement,setting,value
Clc1ccc(C(c2ccccc2Cl)C(Cl)Cl)cc1 (centres unmarked) [mitotane],average delay of disease progression,ACC patients that derive a therapeutic benefit,five
same,share of patients with increased progression-free survival,ACC patients,one-quarter to one-third
